These results are taken from patent EP1005446B1, “N-AROYLPHENYLALANINE DERIVATIVES” (priority 1997, dated 1999).

The target in this assay is T1, VLA-4 (α4β1 integrin) (Homo sapiens, UniProt P05556+P13612).
T1 construct: followed by 10 µl of Ramos cell-derived VLA-4; endogenous in cells; host or cells: Ramos cells (VLA-4 preparation derived from the cells)
In words: VLA-4 / VCAM-1 Screening Assay (solid-phase, dual antibody ELISA). Conditions: inhibition of binding of Ramos cell-derived VLA-4 to immobilized recombinant human VCAM-1. As to the method: VLA-4 / VCAM-1 Screening Assay
VLA-4 antagonist activity, defined as ability to compete for binding to immobilized VCAM-1, was quantitated using a solid-phase, dual antibody ELISA. VLA-4 (α4β1 integrin) bound to VCAM-1 was detected by a complex of anti-integrin β1 antibody: HRP-conjugated anti-mouse IgG: chromogenic substrate (K-Blue). Initially, this entailed coating 96 well plates (Nunc Maxisorp) with recombinant human VCAM-1 (0.4 µg in 100 µl PBS), sealing each plate and then allowing the plates to stand at 4°C for ^~18 hr.
Background: In an ELISA, binding on a coated surface is turned into a signal by an enzyme label.

T1 sequence (P13612 34-1032): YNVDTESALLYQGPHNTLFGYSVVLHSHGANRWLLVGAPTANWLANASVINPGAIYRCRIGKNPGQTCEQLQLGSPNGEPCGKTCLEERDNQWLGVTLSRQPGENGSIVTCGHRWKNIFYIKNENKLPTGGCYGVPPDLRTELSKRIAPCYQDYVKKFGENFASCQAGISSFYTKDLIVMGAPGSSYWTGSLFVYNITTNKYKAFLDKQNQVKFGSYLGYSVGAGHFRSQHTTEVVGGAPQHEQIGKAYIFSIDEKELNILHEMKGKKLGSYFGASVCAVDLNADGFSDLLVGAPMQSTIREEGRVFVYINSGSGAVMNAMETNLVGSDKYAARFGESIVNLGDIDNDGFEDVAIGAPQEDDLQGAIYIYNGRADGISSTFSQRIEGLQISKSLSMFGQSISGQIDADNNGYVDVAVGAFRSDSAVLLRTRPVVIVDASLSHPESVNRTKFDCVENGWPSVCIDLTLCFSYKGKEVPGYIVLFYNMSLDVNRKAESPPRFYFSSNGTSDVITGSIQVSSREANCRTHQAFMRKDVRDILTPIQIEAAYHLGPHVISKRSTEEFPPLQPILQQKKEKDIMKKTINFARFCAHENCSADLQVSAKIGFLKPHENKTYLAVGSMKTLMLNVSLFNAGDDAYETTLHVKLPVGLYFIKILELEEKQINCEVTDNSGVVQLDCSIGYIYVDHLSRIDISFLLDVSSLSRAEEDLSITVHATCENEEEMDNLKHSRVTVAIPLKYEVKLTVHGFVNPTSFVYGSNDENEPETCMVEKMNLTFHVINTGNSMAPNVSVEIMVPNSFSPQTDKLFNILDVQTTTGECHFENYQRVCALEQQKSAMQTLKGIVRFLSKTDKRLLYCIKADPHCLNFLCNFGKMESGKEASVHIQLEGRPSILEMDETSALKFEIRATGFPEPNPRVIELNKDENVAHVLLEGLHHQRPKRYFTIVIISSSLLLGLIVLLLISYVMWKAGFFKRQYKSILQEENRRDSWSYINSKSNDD
T1 sequence (P05556 21-798): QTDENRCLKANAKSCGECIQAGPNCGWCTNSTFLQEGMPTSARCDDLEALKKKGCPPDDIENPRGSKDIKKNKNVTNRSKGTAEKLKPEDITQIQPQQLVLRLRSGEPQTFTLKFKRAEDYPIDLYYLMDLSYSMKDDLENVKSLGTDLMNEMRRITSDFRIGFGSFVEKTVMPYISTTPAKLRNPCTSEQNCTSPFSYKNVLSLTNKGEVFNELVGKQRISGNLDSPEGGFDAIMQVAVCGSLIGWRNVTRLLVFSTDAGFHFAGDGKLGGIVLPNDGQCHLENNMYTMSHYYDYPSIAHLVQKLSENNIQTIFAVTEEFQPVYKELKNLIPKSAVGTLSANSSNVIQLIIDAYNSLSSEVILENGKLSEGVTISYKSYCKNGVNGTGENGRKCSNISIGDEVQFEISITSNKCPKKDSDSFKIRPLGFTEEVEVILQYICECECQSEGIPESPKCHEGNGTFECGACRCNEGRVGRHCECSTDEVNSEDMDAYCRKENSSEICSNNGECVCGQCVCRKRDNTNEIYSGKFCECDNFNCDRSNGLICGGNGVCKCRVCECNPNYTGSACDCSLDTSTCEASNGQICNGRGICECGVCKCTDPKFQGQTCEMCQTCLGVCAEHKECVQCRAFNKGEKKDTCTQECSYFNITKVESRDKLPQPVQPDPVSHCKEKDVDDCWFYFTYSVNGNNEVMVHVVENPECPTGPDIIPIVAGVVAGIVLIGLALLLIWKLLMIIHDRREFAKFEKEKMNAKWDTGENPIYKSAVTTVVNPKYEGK

In the case of `COCCC1(C(=O)N[C@@H](Cc2ccc(NC(=O)c3c(Cl)cccc3Cl)cc2)C(=O)O)CCCC1` [Example 59, 4-[[(2,6-dichlorophenyl)carbonyl]amino]-N-[[1-(2-methoxyethyl)cyclopentyl]carbonyl]-L-phenylalanine], the IC50 (usually the point on the concentration scale where inhibition reaches its midpoint) came out at 0.26 nM.
